The conditions of assay [1]: lean and obese Zucker rats; 200 or 500 mg/kg by gavage; cited from earlier work.
The conditions of assay [2]: Wistar rats, 20 mg/kg orally daily for 5 days, cited from earlier work.
The next assay concerns isolated mouse islets. Conditions: effect faded at normal to low glucose; cited from earlier work.
For assay [3], the system named is skeletal muscle glucose transport system. Conditions: soleus and epitrochlearis muscles of lean and obese Zucker rats; dose-dependent; cited from earlier work.
A short description of assay [4]: Plasma glucose, insulin and glucagon during the four hour recovery period. The format is in vivo, human. As to the method: Before the subjects started the depletion ride, blood was drawn from a medial antecubital vein to establish baseline values for plasma glucose, plasma insulin and plasma glucagon concentrations. After completion of the depletion ride and 240 minutes later, a muscle biopsy was obtained from the vastus lateralis muscle by the use of a percutaneous needle biopsy technique, using the protocol described by Bergström (Bergström 1962). The biopsy sampling was performed by a trained physician with extensive experience in sterile technique. An area of anterolateral side of one thigh was disinfected with chlorhexidine, and local anesthetized with lidocaine (10 mg/ml) in the skin, subcutaneous tissue and muscle fascia. After the area was covered with a sterile hole-piece, a small incision in the skin and fascia of the leg was made with a scalpel and a tissue sample was taken with a Bergström biopsy needle with the aid of suction. The biopsy procedure was managed by Mikkel Overgaard, and assisted by Søren Lavrsen. Approx. 100 mg of muscle tissue was taken from the vastus lateralis muscle. The muscle tissue samples were weighted and immediately placed in liquid nitrogen, and then transferred to a freezer (−80° C.) for storage until analysis for determination of glycogen concentration would be made. At the same time a polyethylene catheter was placed subcutaneous into a medial antecubital vein from which blood samples were collected. 10 ml of blood were drawn for the analysis of plasma glucose and insulin, and 7.5 ml of blood was drawn for the analysis of plasma glucagon. After the first sample at 0 minutes, blood was drawn at 30, 60, 90, 120, 150, 180, 210 and 240 minutes after the subject has finished the glycogen depletion protocol. Blood samples were centrifuged before 2 ml of the plasma was pipetted into standard analyzing tubes and stored at −80° C. for later analysis.
Immediately after the muscle biopsy procedure and initial blood sampling, the subjects ingested either 500 mg of steviol glucosides, or placebo (500 mg of corn starch) Supplementation, together with 1.5 gr/body weight of liquid maltodextrine solution (Pure Power, Harre Denmark). The sequence of stevioside and placebo supplementation was randomized in a balanced order. At 60, 120 and 180 minutes after termination of the depletion ride, the subjects received another carbohydrate rich feeding (1.5 gr/body weight/hour of Carbohydrates/kg body weight/hour), in accordance with the guidelines recommended by (Ivy et al. 1988).
Blood samples were collected for the measurements for measurement of the plasma glucose, insulin and glucagon values before initiation of the glycogen depletion protocol and at 0, 30, 60, 90, 120, 150, 180, 210 and 240 minutes after the subject has finished the glycogen depletion protocol.
10 ml of blood were drawn for the analysis of plasma glucose and insulin, and 7.5 ml of blood was drawn for the analysis of plasma glucagon. All blood was drawn from the antecubital vein. For glucose and insulin the drawn blood was collected in lilthium heparinized tubes (Venosafe—plasma VF-109SHL, Terumo Europe N.V., Leuven, Belgium). For glucagon the drawn blood was collected in EDTA treated tubes (Venosafe). With all samples the tubes were turned over 10 times, to avoid coagulation, before they were centrifuged at 1500 G for 10 minutes at 5° C. using a Sigma 3-18 centrifuge (Sigma Laborzentrifugen GmbH, Osterode am Harz, Germany). 2 ml of the plasma was pipetted into standard analyzing tubes and stored at −80° C. for later analysis. After all testing sessions were finished; all blood samples were packed, according to regulations, in an icebox at […], and transported to the Diabetes laboratory 4, at Aarhus University Hospital, Tage-Hansens Gade (Aarhus, Denmark) for analysis of plasma glucose, insulin and glucagon concentration. […]

In assay [5] the test system is muscle glycogen (vastus lateralis). Put plainly: Muscle glycogen resynthesis after glycogen depleting exercise, double blinded crossover, vastus lateralis biopsies. Format: in vivo, human. The procedure: In this example, the effect is examined of a 500 mg steviol glycosides supplementation together with post-exercise oral carbohydrate (1.5 g/kg/h), versus an isocaloric carbohydrate supplementation on muscle glycogen resynthesis, following glycogen depletive exercise. Fifteen trained male cyclists performed two cycling sessions of 120 min at 75-85% Vo2-max, with the post exercise supplementation of stevioside organized in a double blinded crossover study design. Over the course of a 4 h of recovery period, muscle biopsies were obtained from the vastus lateralis immediately and 240 minutes after exercise, to measure post-recovery glycogen concentration and rate of post-exercise glycogen synthesis. In order to measure plasma glucose, insulin and glucagon, blood samples were drawn before and immediately after exercise, and at every half hour during the four hour recovery period. Results A significant increase in total glycogen concentration was seen following the 4 hour of recovery in both trials (p<0.005). […] Plasma glucose and glucagon levels also show a reduction when stevioside was supplied.
In the present study, a double blinded crossover protocol was used to examine the effect of post exercise carbohydrate ingestion supplemented with or without stevioside supplementation on muscle glycogen resynthesis. The double blinded crossover protocol was chosen to ensure a satisfactory statistical power with the relative few subjects that were included in this study. After completing a preliminary anthropometric assessment incremental and VO2-max test, each subject completed two randomized experimental trials; separate by at least seven days.
After the preliminary testing, each subject underwent two experimental trials, with the experimental supplementation randomized using a randomizing software (Research randomizer) and blinded to both subject and researchers by supplementing the stevioside concealed in capsules. […] The two experimental trials were separated by at least seven days. The subjects were instructed to refrain from any intense exercise 24 hour before both the preliminary test and the two experimental trials. […]
As illustrated the table below, the subjects arrived fasting at 8:00 o'clock a.m. in the lab and completed a glycogen depletion ride consisting of 120 minutes cycling at 75%-80% of their maximal heart rate reserve, followed by a series of five 30 seconds sprint interval at an all-out intensity interspaced with a rest period of 60 seconds. Workload and target heart rate zone was calculated for the subjects, based on the results presented in table 1, performance characteristics of the subjects. […]

The conditions of assay [6]: type II diabetic patients, cited from earlier work.
The conditions of assay [7]: type 2 diabetic subjects, cited from earlier work.

The text below walks through data of patent US9872871B2, “Compositions for use in restoring muscle glycogen and/or muscle mass” (Aarhus Universitet, priority 2013, dated 2018).

“Also recorded” adds a separate entry of the source.

Turning to `C=C1C[C@@]23CC[C@H]4[C@@](C)(CCC[C@@]4(C)C(=O)O[C@@H]4O[C@H](CO)[C@@H](O)[C@H](O)[C@H]4O)[C@@H]2CC[C@]1(O[C@@H]1O[C@H](CO)[C@@H](O)[C@H](O)[C@H]1O[C@@H]1O[C@H](CO)[C@@H](O)[C@H](O)[C@H]1O)C3` [stevioside, Stevioside], the “fasting plasma glucose and insulin” value in assay [1] is reported as “did not significantly affect”. Besides, in assay [2], the “glucose levels before the glucose test compared to control group” value was “no significant decrease”. In addition, the “glucose levels under increased loading during the glucose test” value in assay [2] (stevioside alone) was “conferred beneficial effects”. Also, the insulin release result in the assay with isolated mouse islets is reported as “glucose-dependent insulin release”. Besides, the “insulin action on skeletal muscle glucose transport system” value in assay [3] is reported as “improves the insulin action”. Also, the “time of second plasma insulin peak concentration” value in assay [4] (after third CHO feeding at 120 minutes, placebo at 150) was determined as 180 min. For the same compound, the “difference in plasma insulin concentration between stevioside and control (iAUC)” value in assay [4] (any times during the recovery period, p=0.95) is on record as “no significant difference”. The “plasma glucagon concentration (area under the curve) compared to placebo” value in assay [4] (four hour recovery period) is listed as “reduction”; in assay [4] (four hour recovery period, listed as stevia) it was “clearly reduced”. For the same compound, the “plasma glucose response (iAUC) compared to placebo” value in assay [4] (four hour recovery period, not statistically significant) is “reduction; also recorded: lower”. Also, in assay [4] (four hour recovery period, placebo 55790±12660), the “plasma insulin, mean area under the curve” value is recorded as 56720±11950 ng/ml*4 hours. Also, the “increase of glycogen resynthesis rate compared to placebo” value in assay [5] (4 h recovery, 500 mg orally with carbohydrate) was 35%. Also, the “glycogen resynthesis rate (rate of glycogen repletion)” value in assay [5] (4 h recovery, 500 mg steviol glycosides orally with carbohydrate 1.5 g/kg/h, mean±SE, placebo 27.96±2.6) was determined as 37.84 ± 3.72 mmol/kg/h. This compound yielded a muscle glycogen concentration in assay [5] (240 minutes after completion of the depletion protocol, placebo 246.4±20) of 281.5±29 mmol/kg/dw. Further, the “effect on post-exercise muscle glycogen resynthesis” value in assay [5] (four hour recovery period, in addition to carbohydrate, p<0.022) is recorded as “increase muscle glycogen resynthesis significantly”. Besides, the “postprandial glucagon like peptide-1 level” value in assay [6] (1 g orally) is listed as “significantly reduced”. For the same compound, in assay [6] (1 g orally, not statistically significant), the insulin response result was “tended to stimulate insulin response”. Also, the “reduction of post prandial blood glucose response compared to placebo” value in assay [6] (1 g stevioside orally with standard meal) is 18.5%. Also, the “suppression of postprandial blood glucose level” value in assay [7] (1 g stevioside with standard meal vs maize starch) is given as 18%. Moreover, the circulating insulin levels entry in assay [7] (1 g stevioside with standard meal) is reported as “tended to be increased”.
